Target: human SIRT1 (Homo sapiens (Human), UniProt Q96EB6)
Assay: SIRT1 in vitro deacetylation assay (Fluor-de-Lys, acetylated AMC-labeled p53 peptide)
Type: biochemical
Settings: 50 μM substrate peptide, 500 μM NAD+, 30° C., 2 h; for Emax: SIRT1 activation, read-out: Max (%), percentage of maximum activation achieved; for EC1.5 (concentration raising enzyme activity by 50%): concentration required to increase the enzyme activity by 50%, read-out: EC1.5 (SIRT1 activators); for IC50: concentration reducing enzyme activity by 50%, read-out: IC50 (SIRT1 inhibitors)
Procedure: The inhibitory activity is measured as the concentration of compound required to reduce the enzyme activity by 50% (IC50).
Activation in this assay is measured both as the concentration of compound required to increase the enzyme activity by 50% (EC1.5) as well as by the percentage of maximum activation achieved (Max %) (see, FIG. 1).
The reactions were carried out in a 96-well microplate for fluorometry in a 50 μl reaction volume. After the deacetylation reaction, Fluor-de-Lys-Developer II (BioMol. Cat. #KI-176) was added to each well to digest the deacetylated substrate, thus producing the fluorescent signal. The reaction was allowed to develop for 45 minutes at 30° C. with 5% CO2; then the fluorescent signal was measured with an excitation wavelength at 360 nm and an emission wavelength at 460 nm in a microplate-reading fluorometer (GeminiXS; Molecular Devices, Sunnyvale, Calif.). […] All experiments were performed in triplicate.

Chain of human SIRT1 (Q96EB6 whole entry): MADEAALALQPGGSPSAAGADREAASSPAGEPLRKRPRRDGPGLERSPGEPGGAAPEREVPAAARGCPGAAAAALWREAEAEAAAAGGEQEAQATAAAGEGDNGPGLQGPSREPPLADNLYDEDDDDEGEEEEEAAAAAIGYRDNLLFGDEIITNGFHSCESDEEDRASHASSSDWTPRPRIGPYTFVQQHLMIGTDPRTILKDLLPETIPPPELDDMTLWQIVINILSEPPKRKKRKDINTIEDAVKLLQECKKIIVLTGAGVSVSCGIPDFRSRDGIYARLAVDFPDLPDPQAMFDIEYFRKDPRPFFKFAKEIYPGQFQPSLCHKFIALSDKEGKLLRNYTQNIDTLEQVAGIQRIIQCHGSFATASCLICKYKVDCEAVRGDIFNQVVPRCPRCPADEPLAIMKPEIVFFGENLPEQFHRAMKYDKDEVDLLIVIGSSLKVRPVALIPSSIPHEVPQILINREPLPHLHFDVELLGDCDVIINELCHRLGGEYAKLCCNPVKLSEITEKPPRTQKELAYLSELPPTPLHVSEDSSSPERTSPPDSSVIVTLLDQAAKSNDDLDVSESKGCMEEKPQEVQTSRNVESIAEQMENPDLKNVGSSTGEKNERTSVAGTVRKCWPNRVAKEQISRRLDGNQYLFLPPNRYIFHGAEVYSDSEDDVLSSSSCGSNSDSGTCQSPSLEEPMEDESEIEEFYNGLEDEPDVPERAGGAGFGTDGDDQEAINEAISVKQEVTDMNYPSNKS

Row | SMILES | Emax | EC1.5 (concentration raising enzyme activity by 50%) | IC50
1 | Oc1cc(O)cc(-c2cc3ccc(O)cc3o2)c1 [5-(6-hydroxy-1-benzofuran-2-yl)benzene-1,3-diol, reference compound] | 451% | 11.5 nM | –
2 | Oc1cc(O)cc(-c2cc3c(O)cc(O)cc3o2)c1 [Example 8, 2-(3,5-dihydroxyphenyl)-1-benzofuran-4,6-diol] | 407% | 1.32 nM | –
3 | Oc1ccc(-c2cc3c(O)cc(O)cc3o2)cc1 [Example 9, 2-(4-hydroxyphenyl)-1-benzofuran-4,6-diol] | 444% | 3.55 nM | –
4 | Oc1cc(O)c2cc(-c3ccc(F)cc3)oc2c1 [Example 10, 2-(4-fluorophenyl)-1-benzofuran-4,6-diol] | 279% | 13.5 nM | –
5 | Oc1cc(O)c2cc(-c3cc(O)c(O)c(O)c3)oc2c1 [Example 11, 5-(4,6-dihydroxy-1-benzofuran-2-yl)benzene-1,2,3-triol] | – | – | 1.84 µM
6 | COc1ccc(-c2cc3c(O)cc(O)cc3o2)c(OC)n1 [Example 12, 2-(2,6-dimethoxypyridin-3-yl)benzofuran-4,6-diol] | 130% | – | –
7 | Oc1cc(O)c2cc(-c3cc(F)cc(F)c3)oc2c1 [Example 13, 2-(3,5-difluorophenyl)benzofuran-4,6-diol] | – | – | 36.7 µM
8 | Oc1ccc(-c2coc3cc(O)cc(O)c23)cc1 [Example 15, 3-(4-hydroxyphenyl)-1-benzofuran-4,6-diol] | – | – | 22.8 µM
9 | Oc1cc(O)c2c(-c3cc(F)cc(F)c3)coc2c1 [Example 16, 3-(3,5-difluorophenyl)-1-benzofuran-4,6-diol] | – | – | 274 µM
10 | Oc1cc(O)c2c(-c3ccc(F)cc3)coc2c1 [Example 19, 3-(4-fluorophenyl)benzofuran-4,6-diol] | – | – | 192 µM
11 | Oc1cc(O)c2c(-c3cc(F)cc(F)c3)c(Br)oc2c1 [Example 20, 2-bromo-3-(3,5-difluorophenyl)benzofuran-4,6-diol] | – | – | 76.3 µM
12 | Oc1ccc(C=Cc2cc(O)cc(O)c2)cc1 [Resveratrol, resveratrol, reference compound] | 475% | – | –

— patent US8835659B2, “Polysubstituted benzofurans and medicinal applications thereof” (Ikerchem, S.L., priority 2010, dated 2014)
